# Data as given in patent US7169604B1, “Method for PR-39 peptide mediated selective inhibition of IκBα degradation” (Beth Israel Deaconess Medical Center, priority 1998, dated 2007).
# Peptide text beside a SMILES is read from it. * marks the point of attachment. Cbz = O=C(OCc1ccccc1)*
# What was measured:
# Assay type in all cases: cell-based, human
# IκBα [1] = test: Reversibility of inhibition of IκBα degradation after washout in U937 cells; details: 10 μM for 45 min, washed, 45 min later TNF-α 1 ng/ml, 10 min
# Description: In parallel cells were exposed to MG132, a rapidly reversible competitive inhibitor of the proteasome or with lactacystin which covalently and irreversibly modifies the active site threonine residues. The results are shown by FIG. 1F.
# U937 cells were pretreated with 100 nM of PR-39, 10 μM of either MG132 or lactacystin (LC) or buffer (Control) for 45 min. These cells were then extensively washed with fresh medium. 45 min later TNF-α (1 ng/ml) was added to medium, and the extent of IκBα degradation was determined 10 min later by Western blotting.
# IκBα [2] = test: IκBα protein levels in ECV304 cells by Western blotting; details: ECV304 cells, 2 hr, 10 μM
# Description: For IκBα expression studies, normally proliferating wild type ECV304 cells (ECV) or ECV-PR-39 and ECV-E4 cells were lysed in the loading buffer, subjected to electrophoresis on 10% SDS-PAGE gel and transferred to a PVDF membrane. IκBα expression was then determined by Western blotting with anti-IκBα antibody (Santa Cruz, Inc.). ECV304 cells treated for 2 hr with 10 μM of lactacystin (LC) were used as control.
# Western blotting of ECV cell lysate was carried out following 2 hr exposure to buffer (0) or 100 or 50 nM of PR-39. […] Clearly, exposure of wild type ECV304 cells to the synthetic PR-39 peptide led to a dose-dependent increase in IκBα levels.
# NFκB = test: NFκB-dependent luciferase reporter (pNFκB-Luc) in ECV304 cells; details: 45 min pretreatment with 10 μM, TNF-α 1 ng/ml
# Description: The results are presented by FIG. 2A.
# The effect of PR-39-mediated inhibition of IκBα degradation on NFκB-dependent transcription was tested in ECV304 cells transiently transfected with pNFκB-Luc reporter vector.
# IκBα [3] = test: TNF-α induced degradation of IκBα in U937 cells; details: 45 min pretreatment with 10 μM, TNF-α 1 ng/ml, 10 min
# Description: Tumor necrosis factor (TNF)-α is known to induce rapid degradation of IκBα by the Ub-proteasome pathway.
# As shown by FIG. 1E, PR-39 prevents TNF-a induced degradation of IκBα. U937 cells were cultured in 10% FBs-RPMI medium in the absence (−) or presence of TNF-a (1 ng/ml). 10 min following TNF-α addition, the cells were washed and IκBα protein levels assessed by Western blotting.
# Note that a […] 45 min of pretreatment with 100 nM of PR-39 or 10 μM of MG132 or lactacystin (LC) prior to addition of blocked TNF-α, blocked cytokine-induced degradation of IκBα expression.
# U937 cells = test: Proteasome-dependent degradation of total cellular proteins (35S Met pulse-chase); details: Homo sapiens, U-937, 1 hr chase, chloroquin 45 μM, after 16 hr metabolic labeling, read-out: inhibition of total cell protein degradation
# Description: Therefore the extent of degradation of long-lived cell proteins before or following exposure was compared to either PR-39 or MG132. The result is given by FIG. 3A.
# Exponentially proliferating U937 cells were grown in 10% FBS-RPMI 1640 methionine-free medium supplemented with 200 μCi ^35S Met for 16 hr. Cells were then washed with complete RPMI 1640 medium 3 times and cultured in 10% FBS-RPMI (chase) in the presence of 10 μM of either PR-39 or MG132 or an equal volume of PBS. Chloroquin (45 μM) was added to all cultures to prevent the lysosomal protein degradation. 1 hr later the cells were lysed, and TCA soluble ^35S counts were measured in a liquid scintillation counter (LKB). All experiments were carried out in triplicate and repeated three times. The data are shown as mean±standard deviation.
# HSP70 = HSP70 expression by Western blotting
SMILES,extent of IκBα degradation after washout (IκBα [1]),IκBα levels (IκBα [2]),TNF-α induced increase in luciferase activity (NFκB),TNF-α caused decline of the level of IκBα (IκBα [3]),inhibition at 10 µM (U937 cells) [%],"HSP70 expression (HSP70; U937 cells, 1 μM, 3 hr exposure)","HSP70 levels (HSP70; cultured ECV304 cells, 10 μM)"
CC(=O)N[C@@H](CSC(=O)[C@]1([C@@H](O)C(C)C)NC(=O)[C@H](C)[C@@H]1O)C(=O)O [lactacystin],irreversibly blocked proteasome-mediated degradation of IκBα,increased IκBα levels,completely blocked,markedly reduced,–,–,–
"CC(C)C[C@@H](C=O)NC(=O)[C@H](CC(C)C)NC(=O)[C@H](CC(C)C)NC(=O)OCc1ccccc1 [MG132, reference compound] (Cbz-Leu-Leu-Leu-aldehyde)",complete disappearance of IκBα protein,–,completely blocked,markedly reduced,~50,appearance of HSP70 expression,striking increase in HSP70 levels
